From US12302841B2, “Soybean variety comprising high content of epicatechin” (AMOREPACIFIC CORPORATION, priority 2020, dated 2025) come the findings set out here.

Test [1] relates to collagenase (MMP-1). Nature of the test: Collagenase (MMP-1) expression inhibition test in human fibroblasts. The format is cell-based. The conditions noted are these: 10 μg/mL in serum-free DMEM, 24 hours, relative to untreated group. On the procedure: In order to investigate the antiaging activity of the extract of the Aritaunkong bred in Example 1, the collagenase (MMP-1) expression-inhibiting effect of each of the soybean extracts prepared in Preparation Example was assessed. Specifically, after placing human fibroblasts (Cascade Biologics, Portland, OR, USA) on a 96-well microtiter plate containing DMEM (Dulbecco's modified Eagle's medium) supplemented with 2.5 wt % of fetal bovine serum at 5,000 cells/well, the cells were cultured until ˜90% confluency. Then, after culturing the cells in serum-free DMEM for 24 hours and treating with each of the three soybean extracts of Preparation Example or EGCG (Sigma-Aldrich) as a positive control group, dissolved in serum-free DMEM to 10 μg/mL, for 24 hours, the cell culture was collected. Subsequently, the degree of collagenase production in the collected cell culture was measured using a collagenase measurement kit (Amersham Pharmacia, USA). First, after placing the collected cell culture on a 96-well plate on which a primary collagenase antibody is coated uniformly, antigen-antibody reaction was conducted for 3 hours in a constant-temperature bath (36° C.). […] Collagenase expression inhibition (%)=(1−absorbance of substance-treated cell group/absorbance of control group)×100 [Equation 1]

Test [2] in a line: Antioxidant activity test through DPPH reduction (DPPH radical-scavenging ability). The format is biochemical. Particulars: 100 μM DPPH in ethanol, 37° C. for 30 minutes, absorbance at 540 nm; sample concentration at which absorbance decreased by 50%. As to the method:
In order to investigate the antioxidant activity of the extract of the Aritaunkong bred in Example 1, the DPPH (1,1-diphenyl-2-picrylhydrazyl) oxidation-inhibiting effect of each soybean extract prepared in Preparation Example was compared by monitoring the change in absorbance occurring as a result of reduction of DPPH. Specifically, after preparing 190 μL of a 100 μM (in ethanol) DPPH solution and the soybean extract of Preparation Example and the synthetic antioxidant Trolox (positive control group) to a concentration of 10,000 ppm, they were diluted to final concentrations of 500 ppm, 250 ppm, 125 ppm, 62.5 ppm, 31.25 ppm and 15.63 ppm. After preparing […] reaction solutions by mixing them, absorbance was measured at 540 nm after incubation at 37° C. for 30 minutes. The IC50 indicates the sample concentration when the absorbance was decreased by 50% due to the addition of the sample.

As to `O=C(O[C@@H]1Cc2c(O)cc(O)cc2O[C@@H]1c1cc(O)c(O)c(O)c1)c1cc(O)c(O)c(O)c1` [EGCG], the “Collagenase expression inhibition (%)” value in test [1] was found to be 60.8%.

Take `Cc1c(C)c2c(c(C)c1O)CCC(C)(C(=O)O)O2` (centres unmarked) [Trolox]: the “DPPH radical-scavenging ability (IC50)” value in test [2] worked out at 53.2 ppm.
